Results from US11040052B2, “Methods and pharmaceutical compositions for modulating autophagy in a subject in need thereof” (INSERM (INSTITUT NATIONAL DE LA SANTE ET DE LA RECHERCHE …, priority 2013, dated 2021).
“Also recorded” adds a separate entry of the source.

What was measured:
[1] = tested on: MPA/DMBA induced mammary tumors; test: MPA/DMBA induced mammary tumor; type: in vivo, mice; conditions: mouse, in vivo
Method: Six-week-old female Balb/c mice underwent surgical implantation of slow-release MPA (Medroxyprogesterone Acetate) pellets (50 mg, 90-day release; Innovative Research of America) subcutaneously on the right flank. 200 uL of 5 mg/mL DMBA (Dimethylbenzantracene)
(Sigma Aldrich) dissolved in Corn Oil was administered by oral gavage six times during 8 weeks. Tumor formation was monitored by palpation. When tumors became palpable, mice were assigned to following groups of treatment: PBS, HCA, MTX, MTX plus HCA and the MTX plus HCA upon CD4/CD8 lymphocytes depletion. Combinatorial groups were treated as previously described, whereas for CD4/CD8 depletion, mice were intraperitoneally administrated with 500 μg of anti CD4 and CD8 antibodies the day before the onset of the treatment.

MCA205 tumor = test: Growth of transplantable tumors with chemotherapy; type: in vivo, mice; conditions: for tumor growth, combined with MTX: immunocompetent wild type mice, agent given before and with mitoxanthrone; for tumor growth, combined with MTX, immunodeficient mice: nu/nu (nude athymic) mice
Method: (§1) C57BL/6 mice (Charles River Laboratory, Lentilly, France) were bred and maintained according to both the FELASA and the Animal Experimental Ethics Committee Guidelines (Val de Marne, France). Mice were housed in a temperature-controlled environment with 12 h light/dark cycles and received food and water ad libitum. For HC-related experiments, mice were injected intraperitoneally with a single 100 mg/kg dose and 6 h later were sacrificed and tissues were immediately frozen in liquid nitrogen. For DCA- and DMKG-related experiments, mice were subjected to 24 h starvation and injected intraperitoneally each 8 h with a 100 mg/kg of either DCA or DMKG solution prepared in PBS. After 24 h of starvation, mice were sacrificed and tissues were immediately frozen in liquid nitrogen after extraction and homogenized two cycles for 20 s at 5,500 rpm using Precellys 24 tissue homogenator (Bertin Technologies, Montigny-le-Bretonneux, France) in a 20 mM Tris buffer (pH 7.4) containing 150 mM NaCl, 1% Triton X-100, 10 mM EDTA and Complete® protease inhibitor cocktail (Roche Applied Science). Tissue extracts were then centrifuged at 12,000 g at 4° C. and supernatants were collected. Protein concentration in the supernatants was evaluated by the bicinchoninic acid technique (BCA protein assay kit, Pierce Biotechnology, Rockford, Ill.). For hydroxycitrate-related weight-loss experiments, autophagy-deficient Atg4b^−/− mice were used. Atg4b^−/− mice have been previously described (Mariño et al., 2010). For HC-, spermidine-, and resveratrol-related experiments (tumour growth) mice were intraperitoneally injected with respectively 100 mg/kg, 50 mg/kg and 100 mg/kg doses at day 8 and day 9. At day 9, mice were intraperitoneally injected with 2 mg/kg single dose of Mitoxanthrone. For starvation related experiment (tumour growth) mice were treated as previously described (Fabrizio et. al., 2010).
Six weeks old female C57BL/6, Balb/c and nude athymic mice (Harlan Laboratory, Gannat, France) were bred and maintained according to both the FELASA and the Animal Experimental Inserm Ethics Committee Guidelines (project: 2012-69). Mice were housed in a temperature-controlled environment with 12 h light/dark cycles and received food and water ad libitum. For tumor growth experiments, procedures adopted are described as follows: 3×10^5 tumor cells were subcutaneously inoculated; when tumors became palpable (day −1 before chemotherapy), mice were first intraperitoneally injected with 100 mg/kg Potassium Hydroxycitrate, 10 mg/kg Acetylsalicylic Acid, 30 mg/kg SB204990, 30 mg/kg c646, 5 mg/kg Rapamycin, 25 mg/kg Resveratrol, 50 mg/kg Spermidine. At day 0, mice were intraperitoneally injected with the abovementioned compounds and with 5.17 mg/Kg Mitoxanthrone or 5 mg/kg Oxaliplatin. Tumor size was measured every two days. For starvation experiments, mice underwent 48 hour fasting followed by intreperitoneal injection of chemotherapeutics. For autophagy induction study, 6 hours after CRMs administration, mice were sacrificed and tissues were snap-frozen in liquid nitrogen after extraction and homogenized two cycles for 20 s at 5,500 rpm using Precellys 24 tissue homogenator (Bertin Technologies, Montigny-le-Bretonneux, France) in a 20 mM Tris buffer (pH 7.4) containing 150 mM NaCl, 1% Triton X-100, 10 mM EDTA and Complete® protease inhibitor cocktail (Roche Applied Science, Penzberg, Germany). Tissue extracts were then centrifuged at 12,000 g at 4° C. and supernatants were collected. Protein concentration in the supernatants was evaluated by the bicinchoninic acid technique (BCA protein assay kit, Pierce Biotechnology, Rockford, US.

[2] = tested on: autophagy in mice tissues; test: Autophagy induction in tissues of fed mice (LC3 lipidation, p62, GFP-LC3 dots); type: in vivo
Method: as §1
To avoid post-mortem autophagy induction, dead mice were immediately perfused with 4% paraformaldehyde (w:v in PBS, pH 7.4). Tissues were then harvested and further fixed with the same solution for at least 4 h, followed by treatment with 15% sucrose (w:v in PBS) for 4 h and with 30% sucrose (w:v in PBS) overnight. Tissue samples were embedded in Tissue-Tek OCT compound (Sakura Finetechnical Co. Ltd., Tokyo, Japan) and stored at −70° C. Five μm-thick tissue sections were prepared with a CM3050 S cryostat (Leica Microsystems GmbH, Wetzlar, Germany), air-dried for 1 h, washed in PBS for 5 min, dried at RT for 30 min, and mounted with VECTASHIELD anti-fading medium. In each organ, the number of GFP-LC3 dots was counted in five independent visual fields from at least five mice using a TCS SP2 confocal fluorescence microscope (Leica Microsystems GmbH).
Six weeks old female C57BL/6, Balb/c and nude athymic mice (Harlan Laboratory, Gannat, France) were bred and maintained according to both the FELASA and the Animal Experimental Inserm Ethics Committee Guidelines (project: 2012-69). Mice were housed in a temperature-controlled environment with 12 h light/dark cycles and received food and water ad libitum. For tumor growth experiments, procedures adopted are described as follows: 3×10^5 tumor cells were subcutaneously inoculated; when tumors became palpable (day −1 before chemotherapy), mice were first intraperitoneally injected with 100 mg/kg Potassium Hydroxycitrate, 10 mg/kg Acetylsalicylic Acid, 30 mg/kg SB204990, 30 mg/kg c646, 5 mg/kg Rapamycin, 25 mg/kg Resveratrol, 50 mg/kg Spermidine. At day 0, mice were intraperitoneally injected with the abovementioned compounds and with 5.17 mg/Kg Mitoxanthrone or 5 mg/kg Oxaliplatin. Tumor size was measured every two days. For starvation experiments, mice underwent 48 hour fasting followed by intreperitoneal injection of chemotherapeutics. […]

[3] = tested on: U2OS cells stably expressing GFP-LC3; test: Microinjection of AcCoA or CoA into the cytoplasm; type: cell-based, human; conditions: 10 mM injected; for Hydroxycitrate-induced autophagy after microinjection: HC-treated cells
Method: For microinjection, U2Os cells were cultured overnight on glass coverslips before injection. The setup for the injection itself was as follows: 10 mM CoA or AcCoA were injected in PBS for 0.2 s under a pressure of 150 hPa, using a Microinjector equipment (Eppendorf, Hamburg, Germany). Then cells were culture for 3 h in the presence of 100 nM bafilomycin A1 (BafA1) and fixed for fluorescence microscopy, as described below.
For microinjection, U2OS cells were cultured overnight on culture dishes before injection. The setup for the injection itself was as follows: 10 mM CoA or AcCoA in PBS were injected for 0.2 s under an injection pressure of 150 hPa and a compensatory pressure of 9 hPa, using a microinjector (Eppendorf, Hamburg, Germany). Before injection, cells were cultured for 2 h in the presence of 100 nM bafilomycin A1 (BafA1) in control medium and in presence of 20 mm Hydroxycitrate. One hour after injection, cells were fixed with 4% PFA and analyzed by fluorescent and automated videomicroscopy.

[4] = tested on: intracellular amino acid levels; test: Intracellular amino acid levels by mass spectrometry; type: cell-based; conditions: starved cells
Method: Profiling of intracellular metabolites was performed on a RRLC 1260 system (Agilent Technologies) coupled to a QTOF 6520 (Agilent) equipped with an electrospray source operating in positive ion and full scan mode from 100 to 1000 Da. The gas temperature was set at 350° C. with a gas flow of 10 L·min^1. The capillary voltage was set at 4.0 kV, and the fragmentor at 150 V. Two reference masses were used to maintain the mass accuracy during analysis: 121.050873 (C5H4N4) and 922.009798 (C18H18O6N3P3F24). Five μL of sample were injected on a 150 mm×2.1 mm 3.5 μm SB Aq column (Agilent) with a pre-column 30 mm×2.1 mm 3.5 μm Eclipse plus (Agilent). The gradient mobile phase consisted of water with 10 mmol/L of ammonium acetate and 0.01% of acetic acid (A) and acetonitrile (B). Initial composition of mobile phase was 2% of B, followed by an increase to 95% of B in 10 min. The flow rate was set to 0.3 mL·min^−1.

[5] = chronic treatment; cited from earlier work
cellular ATP levels = test: Cellular ATP levels; type: cell-based; conditions: starved cells

With `O=C1c2c(O)ccc(O)c2C(=O)c2c(NCCNCCO)ccc(NCCNCCO)c21` [MTX, mitoxanthrone] the “mammary tumor growth, monotherapy” value [1] was “had little effect”.
With `Oc1ccc(C=Cc2cc(O)cc(O)c2)cc1` [resveratrol] the “tumor growth, combined with MTX” value (MCA205 tumor) was “capable to recapitulate the positive combinatorial effect of starvation; also recorded: HC could be replaced”, the “tumor growth, combined with MTX” value (MCA205 tumor; listed as Resveratrol) was “mimics the effects of 48 h fasting in delaying subcutaneous MCA205 tumor growth” and the “tumor growth, combined with MTX, immunodeficient mice” value (MCA205 tumor) was “failed”. The “autophagy in vivo (LC3 lipidation, p62, GFP-LC3)” value [2] was “elicits autophagy in mice muscle after 6 hours”.
For `CC(=O)SCCNC(=O)CCNC(=O)[C@H](O)C(C)(C)COP(=O)(O)OP(=O)(O)OC[C@H]1O[C@@H](n2cnc3c(N)ncnc32)[C@H](O)[C@@H]1OP(=O)(O)O` [AcCoA, acetyl-coenzyme A], the “Hydroxycitrate-induced autophagy after microinjection” value [3] was “suppressed by microinjection of AcCoA”, the “Hydroxycitrate-induced autophagy after microinjection” value ([3]; listed as Acetyl CoA) was “inhibits Hydroxycitrate-induced autophagy” and the “cytoplasmic protein acetylation after microinjection” value ([3]; starved cells) was “increased the levels of cytoplasmic protein acetylation”. The “starvation-induced autophagic flux after microinjection” value ([3]; starved cells) was “reduced starvation-induced autophagic flux”.
With `NC(=O)CC[C@H](N)C(=O)O` [glutamine] the “intracellular amino acid levels” value [4] was “did increase cellular glutamate levels”.
For `NCCCCNCCCN` [spermidine], the “health and life spans of mice” value [5] is given as “extends the health and life spans of mice”, the “tumor growth, combined with MTX” value (MCA205 tumor) is given as “capable to recapitulate the positive combinatorial effect of starvation; also recorded: HC could be replaced” and the “tumor growth, combined with MTX” value (MCA205 tumor; listed as Spermidine) is given as “mimics the effects of 48 h fasting in delaying subcutaneous MCA205 tumor growth; also recorded: can enhance chemotherapy efficacy”. For the same compound, the “tumor growth, combined with MTX, immunodeficient mice” value (MCA205 tumor) was “failed” and the “autophagy in vivo (LC3 lipidation, p62, GFP-LC3)” value [2] was “elicits autophagy in mice muscle after 6 hours”.
With `Cn1cnc(N)c2ncnc1-2` [3-MA, 3-methyladenine] the “cellular ATP levels in starved cells” value (cellular ATP levels) was “similarly reduced ATP content”.
